Laboratory results reported in US5656662A, “Synthesis of optically pure 4-alkenyl- or 4-alkanyl-2-hydroxytetronic acids” (The Ohio State University Research Foundation, priority 1995, dated 1997).

Columns and labels:
Type in all cases: cell-based
[1] = MTS; settings: human, monocytes; read-out: TC (Tolerated Concentration), MTS
[2] = system: normal human mononuclear cells; test: Two Way Mixed Lymphocyte Reaction; design: key: NE: No effect; INHIB: Inhibition; STIM: Stimulation; IC40: 40% Inhibitory Concentration; EC50: 50% Effective Concentration; TC: Tolerated Concentration; IA: Interferes with Assay
Procedure: The purpose of this procedure is to determine the effect of test compounds on Mixed Lymphocyte Reaction and Mitogen-Induced Proliferation of normal human mononuclear cells.
Procedure for Two Way Mixed Lymphocyte Reaction: PBMNC from two different donors are added to a 96-well cell culture plate. Four dilutions of test compounds, over a range of three log10 in quadruplicate, along with negative and inhibitory controls are then added to the plate and incubated for six days. Cultures are subsequently pulsed, harvested, and counted as above.

[3] = system: superoxide anion; test: Superoxide anion release from purified human monocytes; design: key: NE: No effect; INHIB: Inhibition; STIM: Stimulation; IC40: 40% Inhibitory Concentration; EC50: 50% Effective Concentration; TC: Tolerated Concentration; IA: Interferes with Assay; settings: zymosan
Procedure: (§1) This assay measures the ability of the test compound to modulate the ability of purified human monocytes to release superoxide anions in response to a zymosan. Compounds are tested at four dilutions over a range of three log10 concentrations. Monocyte-compound cultures are treated with zymosan to stimulate anion production. The amount of superoxide anion produced is determined by the culture's ability to reduce cytochrome C, as measured colorimetrically. The assay is carried out in a 96-well format in triplicate and results are expressed in relation to baseline unstimulated and maximum controls. Appropriate reference controls are run with each assay.
as §1, with “minimum” for “maximum”

[4] = system: GM-CSF; test: GM-CSF expression from purified human monocytes; design: key: NE: No effect; INHIB: Inhibition; STIM: Stimulation; IC40: 40% Inhibitory Concentration; EC50: 50% Effective Concentration; TC: Tolerated Concentration; IA: Interferes with Assay
Procedure: This assay determines the effect of test compounds on the expression of GM-CSF from purified human monocytes. Compounds are tested for their ability to downregulate the production of GM-CSF in activated monocytes, or upregulate secretion of GM-CSF in unstimulated monocytes. Test compounds are incubated for sixteen hours with purified human monocytes at four dilutions over a range of three log10 concentrations. Where appropriate, lipopolysaccharide (LPS) is used to stimulate the monocytes.
The level of GM-CSF in the resultant supernatants is quantitated in a solid phase Enzyme-linked Immunoassay (EIA) performed in a 96 well format. GM-CSF present in the samples is captured by a specific monoclonal antibody immobilized on the well, and probed with an anti-GM-CSF polyclonal antibody conjugated to horseradish peroxidase, followed by an appropriate substrate. The levels of GM- CSF are determined by interpolation of the resultant color change in the substrate from a standard curve. All supernatants are tested in duplicate with controls and standards.

[5] = system: tissue factor (TF); test: Membrane bound tissue factor production from purified human monocytes; design: key to EFFECT on TISSUE FACTOR: NE: No effect; INHIB: Inhibition; STIM: Stimulation; IC40: 40% Inhibitory Concentration; EC50: 50% Effective Concentration; TC: Tolerated Concentration; IA: Interferes with Assay
Procedure: This assay determines the effect of test compounds on the production of membrane bound tissue factor (TF) from purified human monocytes. Compounds are tested for their ability to downregulate the production of TF in activated monocytes, or upregulate production of TF in unstimulated monocytes. Test compounds are incubated for sixteen hours with purified human monocytes at four dilutions over a range of three log10 concentrations. Where appropriate, lipopolysaccharide (LPS) is used to stimulate the monocytes.
After the above period of incubation, medium is aspirated from the monocytes, and the cells are solubilized in Triton-X 100. The level of TF in the soluble fraction is quantitated in a solid phase Enzyme-linked Immunoassay (EIA) performed in a 96 well format. TF present in the samples is captured by a specific monoclonal antibody immobilized on the well, and detected using a biotinylated antibody fragment specific for bound TF, followed by streptavidin conjugated to horseradish peroxidase and an appropriate substrate. The levels of TF are determined by interpolation of the resultant color change in the substrate from a standard curve. All supernatants are tested in duplicate with controls and standards.

[6] = system: adhesion of purified human monocytes to human umbilical vein endothelial cell (HUVEC) cultures; test: Adhesion of purified human monocytes to HUVEC cultures; design: key: NE: No effect; INHIB: Inhibition; STIM: Stimulation; IC40: 40% Inhibitory Concentration; EC50: 50% Effective Concentration; TC: Tolerated Concentration; IA: Interferes with Assay; settings: STIMULATED
Procedure: This assays measures the ability of test compounds to modulate adhesion of purified human monocytes to human umbilical vein endothelial cell (HUVEC) cultures. HUVECs are cultured to confluence in 96-well plates. Purified human monocytes are labelled with fluorescent dye. Triplicate cultures of HUVECs and monocytes are treated with four dilutions of test compound over a range of three log10 concentrations, in addition to stimulated and unstimulated controls. One hour after treatment, TNFα is added to HUVEC cultures to stimulate production of adhesion molecules. After a twelve hour incubation, the treated monocytes are added to their corresponding HUVEC cultures and incubated for ten minutes. The stimulation index (S.I.) is determined by comparing the fluorescence of treated cultures to untreated controls using a fluorometric readout in a 96-well format.

[7] = system: LTB4; test: LTB4 production by purified human monocytes; design: key: NE: No effect; INHIB: Inhibition; STIM: Stimulation; IC40: 40% Inhibitory Concentration; EC50: 50% Effective Concentration; TC: Tolerated Concentration; IA: Interferes with Assay
Procedure: This assay measures the ability of test compounds to modulate the amount of LTB4 produced by the oxygenation of arachidonic acid by 5-lipooxygenase produced by purified human monocytes. Compounds are tested for their ability to downregulate the secretion of LTB4 from activated monocytes, or upregulate secretion of LTB4 from unstimulated monocytes. Test compounds are incubated for ninety minutes with purified human monocytes at four dilutions over a range of three log10 concentrations. Where appropriate, zymosan is used to stimulate the monocytes.
The level of LTB4 in the resultant supernatants is quantitated by immunoassay performed in a 96 well format. LTB4 levels modulated by unknown compounds are determined by interpolation from a standard curve. All compounds are tested in duplicate with controls and standards.

CCCCCCCCCCCCCC/C=C\CC[C@@H]1OC(=O)C(O)=C1O [(S)-3,4-Dihydroxy-5-[(Z)-3-octadecenyl]-2(5H)-furanone]
MNTC [1]: 50 µM | EFFECT on MLR [2]: NE | EFFECT on SUPEROXIDE [3]: IA | EFFECT on GMCSF ([4]; STIMULATED): NE | EFFECT on GMCSF ([4]; UNSTIMULATED): NE | EC50 ([5]; Homo sapiens, Monocyte, STIMULATED, STIM): 35 µM | EFFECT on TISSUE FACTOR ([5]; STIMULATED): STIM | EFFECT on TISSUE FACTOR ([5]; UNSTIMULATED): NE | EFFECT on ADHESION [6]: NE | EFFECT on LTB4 ([7]; STIMULATED): NE | EFFECT on LTB4 ([7]; UNSTIMULATED): NE
